Experimental data published in patent US6608045B2 (priority 1998, dated 2003).

Legend:
Aspergillus niger = assay: Antimicrobial activity by agar diffusion method (paper disc); type: cell-based
Protocol: The antimicrobial activity of tautomycetin prepared in Example 3 was measured by agar diffusion method. 1×10^8/ml of spore suspension of Aspergillus niger was mixed with glucose-yeast extract agar medium and a paper disc containing tautomycetin was put on the agar plate.

[1] = system: T-cell proliferation in mixed lymphocyte reaction (splenocytes of Balb/C and C57BL/6 mouse); assay: Mouse mixed lymphocyte reaction (MLR), [3H]-thymidine labelling; type: cell-based; details: 72 hours + 24 hours [3H]-thymidine
Protocol: After the mixed cell culture was incubated at 37° C. for 72 hours, under an environment of 5% CO2, [^3H]-thymidine was added to the plate and further incubated for 24 hours to investigate the suppressive activity against T-cell proliferation by the degree of thymidine labelling.

IL-2 expression [2] = assay: IL-2 expression reporter (NF-AT/IL-2 promoter β-galactosidase) in transfected Jurkat T cells stimulated by PMA and ionomycin; type: cell-based, human
Source text: The suppressive activity of tautomycetin against the expression of interleukin-2(IL-2), which plays a crucial role in the immune system, was investigated by treating T-cell proliferating factors such as phorbol-12-myristate-13-acetate(PMA) and ionomycin, which activate protein kinase C to increase the level of diacylglycerol and Ca^2+ in cells: First, to monitor the IL-2 expression level indirectly, transfected Jurkat T cells where the expression of β-galactosidase is driven by the multiple NF-AT(nuclear transcriptional activator) binding sites upstream of minimal IL-2 promoter, were employed and the cells were resuspended in RPMI medium containing 10% fetal bovine serum, 2 mM L-glutamine and 100 unit of penicillin. 1×10^5 of transfected Jurkat T cells were aliquoted to 96-wll microplate, and incubated for 24 hours with the 4 μM ionomycin and 64 nM PMA, while changing the concentration of tautomycetin. Then, centrifugation was carried out to harvest cells, and washed twice with phosphate-buffered saline(PBS). 150 μl of β-galactosidase detecting solution(containing 0.1% Triton X-100, 200 mM sodium phosphate, 2 mM MgCl2, 100 mM β-mercaptoethanol, 1.33 mg/ml ONPG) was added to each well and incubated at 37° C. for 1 hour. 100 μl of 1M sodium carbonate was added to stop the reaction and measured the suppressive activity of tautomycetin against the IL-2 expression by spectrophotometry at a wavelength of 410 nm.

IL-2 expression [3] = assay: IL-2 expression reporter (NF-AT/IL-2 promoter β-galactosidase) in transfected Jurkat T cells stimulated by OKT-3 (TcR-mediated) and PMA; type: cell-based, human
Protocol: Monoclonal antibody OKT-3, which binds specifically to ε-chain of T-cell receptor(TcR)-CD3 complex, induces IL-2 expression and specific T-cell proliferation by activating TcR-mediated signal transduction. In this regard, the suppressive activity of tautomycetin against the expression of IL-2 stimulated via TcR was investigated: First, 10 μg of goat anti-mouse IgG was immobilized on 96-well microplate in an ELISA coating buffer(pH 9.0) and 10 μg of monoclonal antibody OKT-3 was also immobilzed thereon. To monitor the IL-2 expression level indirectly, transfected Jurkat T cells where the expression of β-galactosidase is driven by the multiple NF-AT(nuclear transcriptional activator) binding sites upstream of minimal IL-2 promoter, were employed and the cells were resuspended in RPMI medium containing 10% fetal bovine serum, 2 mM L-glutamine and 100 unit of penicillin. 1×10^5 of transfected Jurkat T cells were aliquoted to 96-well microplate, and incubated for 24 hours in a medium containing 64 nM PMA while changing the concentration of tautomycetin. Then, centrifugation was carried out to harvest cells, and washed twice with PBS. 150 μl of β-galactosidase detecting solution(containing 0.1% Triton X-100, 200 mM sodium phosphate, 2 mM MgCl2, 100 mM β-mercaptoethanol, 1.33 mg/ml ONPG) was added to each well and after 1 hour, 100 μl of 1M sodium carbonate was added to stop the reaction and measured the suppressive activity of tautomycetin against the IL-2 expression by spectrophotometry at a wavelength of 410 nm.

[4] = system: tyrosine phosphorylation of intracellular proteins involved in TcR-mediated signal transduction; assay: Immunoblot of tyrosine phosphorylation in CD8-ζ transfected Jurkat T cells stimulated by OKT-8; type: cell-based, human; details: 1 μg/ml, 10 hours, Jurkat T CD8-ζ transfectants, OKT-8 stimulation
Protocol: The suppressive activity of tautomycetin against the signal transduction around the membrane was investigated by determining the suppressive activity against the tyrosine phosphorylation of intracellular protein: To analyse the pathway of signal transduction mediated by TcR, Jurkat T cells which were transfected with a recombinant gene fragment, CD8-ζ chimeric DNA, harboring the ecto+transmembrane domain of CD8 and endomembrane domain of CD3-ζ chain, were cultured in RPMI medium containing 10% fetal bovine serum, 2 mM L-glutamine and 100 unit of penicillin. 1 μg/ml of tautomycetin was treated to 1×10^6 of Jurkat T cell transfectants and incubated for 10 hours, then centrifugation was carried out to harvest cells. The cells were washed twice with PBS and then stimulated by 10 μg/ml of OKT-8 and 10 μg/ml of the rabbit anti-mouse IgG antibody. The tyrosine phosphorylation was detected by immunoblot where the protein was isolated by 12.5% SDS-polyacrylamide gel electrophoresis and transferred to Immunobilon-P membrane(Millipore, U.S.A.). The phosphorylated tyrosine residue of intracellular protein or ZAP-70 protein was detected by the treatment of monoclonal antibody 4G10(Upstate Biotech Inc., U.S.A) or monoclonal antibody against ZAP-70(Zymed, U.S.A.), respectively. […]

[5] = system: tyrosine phosphorylation of intracellular proteins (BcR signal transduction); assay: Immunoblot of tyrosine phosphorylation in CD8-Igα/CD8-Igβ transfected BJAB cell (human B-cell); type: cell-based; details: BJAB transfectants, stimulation by monoclonal antibody against BcR
[6] = system: cell surface antigen CD69; assay: Activation-induced CD69 expression in Jurkat T cells, flow cytometry; type: cell-based, human; details: 1 μg/ml, OKT-3 + PMA, 20 hours
Protocol: 1 μg/ml of tautomycetin was added to 1×10^6 of Jurkat T cells, which were stimulated by 10 μg/ml of OKT-3 monoclonal antibody and 50 ng/ml of PMA, and the cells were incubated for 20 hours. Monoclonal antibody against CD69(anti-CD69 mAb) was treated to the cells to carry out color-reaction and analysed by flow cytometry.

[7] = system: interleukin-2 receptor(IL-2R); assay: Activation-induced interleukin-2 receptor expression on Jurkat T cell surface, flow cytometry; type: cell-based, human; details: 1 μg/ml, OKT-3 + PMA
Protocol: To investigate the suppressive activity against interleukin-2 receptor(IL-2R) expression on the cell surface, 1×10^6 of Jurkat T cell treated with 1 μg/ml of tautomycetin was activated by OKT-3 monoclonal antibody and PMA, and color-developed by the aid of monoclonal antibody against IL-2R(anti IL-2R mAb), then analysed by flow cytometry.

[8] = system: graft rejection in heart transplantation; assay: Heart graft experiment (Lewis rat donor, Wistar rat recipient), heartbeat by palpation; type: in vivo

Substance: tautomycetin
- minimum inhibitory concentration(MIC) (Aspergillus niger; 48 hours at 28° C., size of growth inhibitory zone): less than 1 μg/ml
- antimicrobial strength relative to cyclosporin A (Aspergillus niger; MIC comparison): 10 times
- IC50 [1]: 43 nM
- IC50, suppressive activity against IL-2 expression (IL-2 expression [2]; Jurkat T transfectants, 4 μM ionomycin and 64 nM PMA, 24 hours): 3 ng/mL
- suppressive activity against IL-2 expression relative to cyclosporin A (IL-2 expression [2]; PMA + ionomycin): 6 times
- Suppressive Activity against IL-2 expression (IL-2 expression [2]; concentration 0.001 μg/ml, PMA + ionomycin): 12.8
- Suppressive Activity against IL-2 expression (IL-2 expression [2]; concentration 0.01 μg/ml, PMA + ionomycin): 83.9
- Suppressive Activity against IL-2 expression (IL-2 expression [2]; concentration 0.1 μg/ml, PMA + ionomycin): 88
- Suppressive Activity against IL-2 expression (IL-2 expression [2]; concentration 1 μg/ml, PMA + ionomycin): 98
- IC50, suppressive activity against IL-2 expression (IL-2 expression [3]; Jurkat T transfectants, immobilized OKT-3 and 64 nM PMA, 24 hours): 6.6e-06 ng/mL
- suppressive activity against IL-2 expression relative to cyclosporin A (IL-2 expression [3]; OKT-3 + PMA): 100 times
- Suppressive Activity against IL-2 expression (IL-2 expression [3]; concentration 10^−7 μg/ml, OKT-3 + PMA): 74.8
- Suppressive Activity against IL-2 expression (IL-2 expression [3]; concentration 10^−8 μg/ml, OKT-3 + PMA): 46.8
- Suppressive Activity against IL-2 expression (IL-2 expression [3]; concentration 10^−9 μg/ml, OKT-3 + PMA): 37.5
- tyrosine phosphorylation of intracellular proteins (TcR-mediated signal transduction), except for ZAP-70 [4]: inhibited
- tyrosine phosphorylation of intracellular proteins in B-cell [5]: does not inhibit
- activation-induced expression of cell surface antigen CD69 [6]: suppresses the expression of cell surface antigen CD69
- activation-induced expression of IL-2R on the cell surface [7]: suppresses the expression of IL-2R on the cell surface more effectively than cyclosporin A
- concentration sustaining the heart movement, as fraction of cyclosporin A ([8]; i.p., injection formula of Example 11): 1/50
- concentration sustaining the heart movement, as fraction of cyclosporin A ([8]; i.v., injection formula of Example 12): 1/500
